In PubChem BioAssay (NCI) one finds GI50 and TGI data, which are given here for twelve molecules.

Among the test systems are A549 NSCLC; CAKI-1 renal; CCRF-CEM leukemia; MOLT-4 leukemia; RPMI-8226 leukemia; SF-268 CNS; SK-MEL-5 melanoma; SNB-19 CNS; SK-MEL-28 melanoma; SW-620 colon.
Assay in all cases: DTP human tumour cell line panel, 48 h

The structures appear in SMILES notation.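 The compound was tested at five concentrations on cells cultured in 96-well plates, with a 48-hour exposure period. At the GI50, growth is halved. TGI: total growth inhibition.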

Take `COc1ccc(-c2nc3sccn3c2/C=C/C(=O)c2cc(OC)c(OC)c(OC)c2)cc1OC`: the GI50 was 2.62 µM in the test with A549 NSCLC; 3.01 µM in the test on CAKI-1 renal; 2.64 µM in the test on CCRF-CEM leukemia; 2.07 µM in the test on MOLT-4 leukemia; 1.19 µM in the test with RPMI-8226 leukemia; 2.36 µM with SF-268 CNS. Besides, the GI50 in the test with SK-MEL-5 melanoma is 1.54 µM; with SNB-19 CNS it was 2.45 µM. Further, the TGI is 6.03 µM in the test with A549 NSCLC; above 100 µM with CAKI-1 renal; above 100 µM in the test with CCRF-CEM leukemia; 6.47 µM in the test with MOLT-4 leukemia; 4.95 µM in the test with RPMI-8226 leukemia; 6.44 µM with SF-268 CNS. In addition, the figures for the TGI in the test with SK-MEL-5 melanoma and with SNB-19 CNS were 2.99 µM and 6.3 µM, respectively.
For `CC1=C2C(=CC(C)(CO)C2O)C(=O)C(C)(O)C12CC2` (centres undefined), the TGI with A549 NSCLC is 0.0902 µM; with CAKI-1 renal, 0.0183 µM; in the test on CCRF-CEM leukemia, 0.0686 µM; in the test with MOLT-4 leukemia it was 0.0104 µM; with SF-268 CNS it was 0.0159 µM; with SK-MEL-28 melanoma it was 0.0138 µM. The TGI in the test with SK-MEL-5 melanoma worked out at 0.0036 µM; in the test with SNB-19 CNS, 0.0422 µM; in the test on SW-620 colon it was 0.0585 µM. The GI50 in the test with CCRF-CEM leukemia was 0.00172 µM.
For the molecule `CN(OC(=O)CC(=O)c1ccccc1)C(=O)Cc1ccccc1`, the concentration for total growth inhibition (TGI) with A549 NSCLC, with CAKI-1 renal, in the test on CCRF-CEM leukemia, in the test on RPMI-8226 leukemia, in the test on SF-268 CNS and in the test on SK-MEL-5 melanoma was above 100 µM in each case. Further, the TGI in the test with SNB-19 CNS and in the test with SW-620 colon was above 100 µM throughout.
Consider `COc1cc(-c2cc(C(=O)Nc3nc4ccccc4s3)nc3cc(-c4ccccc4)nn23)cc(OC)c1OC`, for which the GI50 in the test on CAKI-1 renal is 53.7 µM; with CCRF-CEM leukemia, 54.1 µM; in the test on MOLT-4 leukemia it was above 100 µM; with RPMI-8226 leukemia, above 100 µM; in the test on SF-268 CNS, 4.5 µM; in the test on SK-MEL-28 melanoma, 3.34 µM. Besides, the GI50 in the test on SK-MEL-5 melanoma is 13.8 µM; with SNB-19 CNS, 16.7 µM. In addition, the TGI is above 100 µM with CAKI-1 renal; above 100 µM in the test with CCRF-CEM leukemia; above 100 µM with MOLT-4 leukemia; above 100 µM in the test on RPMI-8226 leukemia; 48.8 µM in the test with SF-268 CNS; above 100 µM in the test with SK-MEL-28 melanoma. The TGI in the test on SK-MEL-5 melanoma is above 100 µM; in the test with SNB-19 CNS, 69.5 µM.
Turning to `COc1cccc(/C=C\c2cc(OC)c(OC)c(OC)c2)c1`, the TGI with A549 NSCLC is above 100 µM; with CAKI-1 renal, 56.4 µM; with CCRF-CEM leukemia, 22.8 µM; with MOLT-4 leukemia, 18 µM; in the test with RPMI-8226 leukemia, 42.3 µM; in the test with SF-268 CNS, above 100 µM. Moreover, the TGI was 7.15 µM with SK-MEL-28 melanoma, above 100 µM with SNB-19 CNS and above 100 µM with SW-620 colon.
For `CCN(CC)c1ccc2[nH]c3c(C(N)=O)cc(=O)c(=O)c=3oc2c1`, the GI50 is 1.75 µM with A549 NSCLC; 1.09 µM in the test on CAKI-1 renal; 1.9 µM with CCRF-CEM leukemia; 0.383 µM with RPMI-8226 leukemia; 1.98 µM in the test with SF-268 CNS; 3.76 µM in the test on SK-MEL-28 melanoma. For the same molecule, the GI50 with SK-MEL-5 melanoma was 1.22 µM; in the test with SNB-19 CNS, 2.68 µM; with SW-620 colon, 2.36 µM. Moreover, the TGI turned out to be 5.12 µM in the test on A549 NSCLC; 3.44 µM in the test on CAKI-1 renal; 8.19 µM in the test on CCRF-CEM leukemia; 4.7 µM in the test with RPMI-8226 leukemia; 15.1 µM in the test with SF-268 CNS; 17.2 µM with SK-MEL-28 melanoma. For the same molecule, the concentration for total growth inhibition (TGI) with SK-MEL-5 melanoma is 2.49 µM; in the test on SNB-19 CNS, 24.5 µM; in the test on SW-620 colon it was above 100 µM.
With `CCOC(=O)c1sc2ncn(Cc3cccc(Cl)c3)c(=O)c2c1C`, the GI50 in the test with A549 NSCLC was 16.4 µM; in the test with CAKI-1 renal, 6.19 µM; in the test with MOLT-4 leukemia, 13.2 µM; in the test on RPMI-8226 leukemia it was 5.58 µM; in the test with SF-268 CNS, 15.1 µM; in the test with SK-MEL-28 melanoma, 16.8 µM. Also, the GI50 was 14.9 µM in the test on SK-MEL-5 melanoma, 16.3 µM in the test on SNB-19 CNS and 18.1 µM in the test with SW-620 colon. The concentration for total growth inhibition (TGI) turned out to be 30 µM in the test on A549 NSCLC; 19.2 µM with CAKI-1 renal; 25.9 µM in the test on MOLT-4 leukemia; 18.4 µM in the test with RPMI-8226 leukemia; 28.4 µM with SF-268 CNS; 30.4 µM in the test with SK-MEL-28 melanoma. Besides, the values for the TGI in the test with SK-MEL-5 melanoma, in the test with SNB-19 CNS and in the test with SW-620 colon were 28.1 µM, 29.8 µM and 32 µM, respectively.
As for `CN(C)CCCNC(=O)c1cc(NC(=O)c2cc(NC(=O)CCCN3c4ccccc4C=Cc4ccccc43)cn2C)cn1C`, the GI50 in the test with A549 NSCLC was 11.5 µM; with CAKI-1 renal, 18.5 µM; in the test on CCRF-CEM leukemia, 2.82 µM; with MOLT-4 leukemia it was 2.88 µM; in the test on RPMI-8226 leukemia, 2.29 µM; in the test on SF-268 CNS, 5.06 µM. The GI50 is 6.32 µM in the test with SNB-19 CNS and 3.96 µM in the test with SW-620 colon. The TGI was 39.9 µM with A549 NSCLC; 43.9 µM in the test on CAKI-1 renal; 12.7 µM in the test on CCRF-CEM leukemia; above 100 µM with MOLT-4 leukemia; 6.21 µM in the test with RPMI-8226 leukemia; above 100 µM in the test on SF-268 CNS. The concentration for total growth inhibition (TGI) in the test on SNB-19 CNS and in the test with SW-620 colon was above 100 µM each time.
As to `CC(=O)CC(=O)CCCC(=O)Nc1ccc(Cl)cc1Cl`, the TGI in the test with A549 NSCLC, in the test on CAKI-1 renal, in the test with MOLT-4 leukemia, in the test with RPMI-8226 leukemia, in the test with SF-268 CNS and in the test with SK-MEL-28 melanoma was above 100 µM each time. Besides, the TGI with SNB-19 CNS and in the test with SW-620 colon was above 100 µM throughout.
For the molecule `COC(=O)C(=O)C(C(=O)C(=O)Nc1ccc([N+](=O)[O-])cc1[N+](=O)[O-])c1nc2ccc([N+](=O)[O-])cc2[nH]c1=O` (centres undefined), the TGI in the test with A549 NSCLC, in the test with CAKI-1 renal, in the test with CCRF-CEM leukemia, in the test with MOLT-4 leukemia, in the test on RPMI-8226 leukemia and in the test on SF-268 CNS was above 100 µM throughout. Moreover, the TGI in the test on SNB-19 CNS and with SW-620 colon was above 100 µM throughout.
Turning to `Cc1cc(N(CCC#N)CCC#N)ccc1N=Nc1ccccc1[N+](=O)[O-]`, the TGI in the test with A549 NSCLC, with CAKI-1 renal, with CCRF-CEM leukemia, in the test on MOLT-4 leukemia, with SF-268 CNS and with SK-MEL-28 melanoma was above 100 µM each time. Moreover, the TGI with SK-MEL-5 melanoma and with SW-620 colon was above 100 µM throughout.
`O=C(O)CSCC(=O)c1ccccc1`: the TGI in the test with A549 NSCLC, with CAKI-1 renal, in the test on MOLT-4 leukemia, in the test with RPMI-8226 leukemia, in the test on SF-268 CNS and with SK-MEL-28 melanoma was above 100 µM each time. In addition, the total growth inhibition concentration (TGI) in the test on SK-MEL-5 melanoma, with SNB-19 CNS and in the test on SW-620 colon was above 100 µM in each case.
